Assay results taken from patent publication US11209437B2, “Fluorescent probe and preparation method and use thereof” (Fluorescence Diagnosis (shanghai) Biotech Company Ltd., priority 2016, dated 2021).

Key:
SNAP protein tags = target: T1, SNAP protein tags (Homo sapiens, UniProt P16455, A127T/A154D/C150Q/C62A/E30R/G131K/G132T/G153L/K125A/K32I/L33F/M134L/N157G/Q115S/Q116H/R128A/R135S/S151G/S152D/S159E); test: Fluorescence activation of probe after incubation with corresponding protein tag (SNAP); assay type: biochemical; conditions: probe 5 μM, protein tag 10 μM, 37° C., 1 hr
T1 sequence (P16455 1-182 E30R/K32I/L33F/C62A/Q115S/Q116H/K125A/A127T/R128A/G131K/G132T/M134L/R135S/C150Q/S151G/S152D/G153L/A154D/N157G/S159E): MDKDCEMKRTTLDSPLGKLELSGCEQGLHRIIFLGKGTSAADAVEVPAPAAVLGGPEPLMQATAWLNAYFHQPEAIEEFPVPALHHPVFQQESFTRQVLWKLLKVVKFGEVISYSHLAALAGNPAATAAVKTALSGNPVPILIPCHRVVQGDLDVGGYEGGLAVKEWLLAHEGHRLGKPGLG
Experimental: (§1) Probes were mixed with corresponding protein tags to obtain mixed samples, in which the final probe concentration was 5 μM, and the final protein tag concentration was 10 μM. The mixed samples were incubated 37° C. for 1 hr, fluorescence spectrophotometer was used to detect the change in fluorescence intensity, and the results are shown in Table 1.
(§2) From the quantum yield of probe bound to protein tag, after reacting with the protein tags, the probes of the Examples could be detected to have significant signal enhancement in corresponding excitation transmission channels, the fluorescence activation multiple reached several hundreds to a thousand or more, and the brightness was high, which illustrates that after the probes of the Examples are bound to the protein tags, fluorescence of the probes can be activated, and the probes have good fluorescent molecular switching properties. In contrast, though the fluorescence of the reference probes could also be activated, the quantum yield of activated fluorescence was very low, and the brightness was very poor. In particular, in view of comparison results between probe 98 and reference probe 99, probe 101 and reference probe 102, probe 103 and reference probe 104, probe 105 and reference probe 106, probe 107 and reference probe 108, probe 109 and reference probe 110, probe 111 and reference probe 112, probe 114 and reference probe 115, probe 117 and reference probe 118, probe 120 and reference probe 121 in Table 1, for the same fluorescent dye, when the ligand is connected to the electron donor part of the fluorescent dye, the fluorescence activation brightness of the probe is much higher than the reference probe in which ligand is connected to the electron acceptor part of the fluorescent dye.

[1] = Viscosity responsiveness: fluorescence emission spectra of probes in glycerol and methanol; assay type: physicochemical; conditions: for Emission wavelength: excited at maximum excitation wavelength of each probe; for Fluorescence ratio in glycerol to methanol: probe 1×10^−5 M
Experimental: Probes 1 to 98, 101, 103, 105, 107, 109, 111, 114, 117, and 120, and the reference probes 99, 100, 102, 104, 106, 108, 110, 112, 113, 115, 116, 118, 119, 121, BG-CCVJ and BG-Gly-CCVJ were dissolved in dimethyl sulfoxide, respectively, to prepare mother liquors having a concentration of 1×10^−2 M, to each of which glycerol and methanol were added and uniformly mixed, to prepare solutions finally having a concentration of 1×10^−5 M. Depending on the probes, fluorescence emission spectra of the probes were detected successively with the maximum excitation wavelength of each probe under the same conditions, and the results were shown in Table 1.
That is, these probes are sensitive to viscosity changes and have viscosity responsiveness.

[2] = Fluorescence of free probe prior to binding to a protein tag; assay type: physicochemical
Experimental: as §1, §2

Row | Structure (SMILES) | Fluorescence activation multiple (SNAP protein tags) | Quantum yield of probe bound to protein tag (SNAP protein tags) | Emission wavelength [1] [nm] | Fluorescence ratio in glycerol to methanol [1] | Quantum yield of free probe [2]
1 | CN(CCO)c1ccc2nc(/C=C(\C#N)C(=O)NCc3ccc(COc4nc(N)nc5[nH]cnc45)cc3)sc2c1 [Reference Probe 115, reference compound] | 38 | 0.01 | 625 | 113 | <0.001
2 | CN(C)c1ccc(-c2ccc(/C=C(\C#N)C(=O)NCc3ccc(COc4nc(N)nc5[nH]cnc45)cc3)s2)cc1 [Reference Probe 116, reference compound] | 29 | 0.01 | 620 | 125 | <0.001
3 | CN(CCO)c1ccc(-c2ccc(/C=C(\C#N)C(=O)NCc3ccc(COc4nc(N)nc5[nH]cnc45)cc3)s2)cc1 [Reference Probe 118, reference compound] | 29 | 0.02 | 621 | 158 | <0.001
4 | CN(C)c1ccc(-c2ccc(/C=C(\C#N)C(=O)NCc3ccc(COc4nc(N)nc5[nH]cnc45)cc3)s2)s1 [Reference Probe 119, reference compound] | 15 | 0.01 | 655 | 362 | <0.001
5 | CN(CCO)c1ccc(-c2ccc(/C=C(\C#N)C(=O)NCc3ccc(COc4nc(N)nc5[nH]cnc45)cc3)s2)s1 [Reference Probe 121, reference compound] | 39 | 0.01 | 655 | 219 | <0.001
6 | N#C/C(=C\c1cc2c3c(c1)CCCN3CCC2)C(=O)NCc1ccc(COc2nc(N)nc3[nH]cnc23)cc1 [Reference Probe BG-CCVJ, reference compound] | 170 | 0.02 | 501 | 260 | <0.001
7 | N#C/C(=C\c1cc2c3c(c1)CCCN3CCC2)C(=O)NCC(=O)NCc1ccc(COc2nc(N)nc3[nH]cnc23)cc1 [Reference Probe BG-Gly-CCVJ, reference compound] | 60 |  |  | 260 | <0.001
8 | CN(CCOC(=O)NCc1ccc(COc2nc(N)nc3[nH]cnc23)cc1)c1ccc(/C=C(\C#N)c2nc3ccccc3o2)cc1 [probe 2] | 146 | 0.15 | 510 | 410 | 0.001
9 | CN(CCOC(=O)NCc1ccc(COc2nc(N)nc3[nH]cnc23)cc1)c1ccc(/C=C(\C#N)c2nc3ccccc3s2)cc1 [probe 3] | 139 | 0.27 | 532 | 399 | 0.0019
10 | CN(CCOC(=O)NCc1ccc(COc2cc(Cl)nc(N)n2)cc1)c1ccc(/C=C(\C#N)C(=O)OC(C)(C)C)cc1 [probe 4] | 490 | 0.35 | 480 | 562 | <0.001
11 | CN(CCOC(=O)NCc1ccc(COc2cc(Cl)nc(N)n2)cc1)c1ccc(/C=C(\C#N)c2nc3ccccc3o2)cc1 [probe 5] | 1174 | 0.15 | 555 | 790 | <0.001
12 | CN(CCOC(=O)NCc1ccc(COc2cc(Cl)nc(N)n2)cc1)c1ccc(/C=C(\C#N)c2nc3ccccc3s2)cc1 [probe 6] | 989 | 0.37 | 610 | 1183 | <0.001

The next lines start with the values.

Row | Fluorescence activation multiple (SNAP protein tags) | Quantum yield of probe bound to protein tag (SNAP protein tags) | Emission wavelength [1] [nm] | Fluorescence ratio in glycerol to methanol [1] | Quantum yield of free probe [2] | Structure (SMILES)
13 | 431 | 0.39 | 482 | 655 | <0.001 | CC(C)(C)OC(=O)/C(C#N)=C/c1ccc(N(CCO)CCOC(=O)NCc2ccc(COc3nc(N)nc4[nH]cnc34)cc2)cc1 [probe 10]
14 | 270 | 0.36 | 481 | 422 | 0.0013 | CC(C)(C)OC(=O)/C(C#N)=C/c1ccc(N(CCOC(=O)NCCCS(=O)(=O)O)CCOC(=O)NCc2ccc(COc3nc(N)nc4[nH]cnc34)cc2)cc1 [probe 11]
15 | 351 | 0.41 | 482 | 405 | 0.0012 | COCCOCCOCCOCCOCCN(CCOC(=O)NCc1ccc(COc2nc(N)nc3[nH]cnc23)cc1)c1ccc(/C=C(\C#N)C(=O)OC(C)(C)C)cc1 [probe 12]
16 | 315 | 0.29 | 483 | 391 | <0.001 | CN(CCC(=O)NCc1ccc(COc2nc(N)nc3[nH]cnc23)cc1)c1ccc(/C=C(\C#N)C(=O)OC(C)(C)C)cc1 [probe 13]
17 | 771 | 0.18 | 531 | 560 | <0.001 | CN1C(=O)/C(=C/c2ccc(N(C)CCOC(=O)NCc3ccc(COc4nc(N)nc5[nH]cnc45)cc3)cc2)N=C1c1ccccc1 [probe 14]
